Reference: patent US6504058B1 (priority 1997, dated 2003)

What was measured:
[1] = tested on: Botrytis cinerea; assay: Test E: gray mold, preventive spray on cucumber seedlings, disease rating; type: in vivo, Botrytis cinerea (on cucumber seedlings); details: 200 ppm test suspension sprayed to run-off (equivalent to 500 g/ha) on cucumber seedlings; 100 = 100% disease control, 0 = no control; # = significant activity
Excerpt: (§1) Test compounds were first dissolved in acetone in an amount equal to 3% of the final volume and then suspended at a concentration of 200 ppm in purified water containing 250 ppm of the surfactant Trem® 014 (polyhydric alcohol esters). The resulting test suspensions were then used in the following test. Spraying these 200 ppm test suspensions to the point of run-off on the test plants is the equivalent of a rate of 500 g/ha.
The test suspension was sprayed to the point of run-off on cucumber seedlings. The following day the seedlings were inoculated with a spore suspension of Botrytis cinerea (the causal agent of gray mold on many crops) and incubated in a saturated atmosphere at 20° C. for 48 h, and moved to a growth chamber at 20° C. for 5 days, after which disease ratings were made.
(§2) Results for Tests A-E are given in Table A. In the table, a rating of 100 indicates 100% disease control and a rating of 0 indicates no disease control (relative to the controls). A dash (-) indicates no test results. ND indicates disease control not determined due to phytotoxicity. # indicates significant activity.

[2] = tested on: Phytophthora infestans; type: in vivo, Phytophthora infestans (on tomato seedlings); details: 200 ppm test suspension sprayed to run-off (equivalent to 500 g/ha) on tomato seedlings; 100 = 100% disease control, 0 = no control; # = significant activity
[3] = tested on: Puccinia recondita; assay: Test B: wheat leaf rust, preventive spray on wheat seedlings, disease rating; type: in vivo, Puccinia recondita (on wheat seedlings); details: 200 ppm test suspension sprayed to run-off (equivalent to 500 g/ha) on wheat seedlings; 100 = 100% disease control, 0 = no control; # = significant activity
Excerpt: as §1
The test suspension was sprayed to the point of run-off on wheat seedlings. The following day the seedlings were inoculated with a spore suspension of Puccinia recondita (the causal agent of wheat leaf rust) and incubated in a saturated atmosphere at 20° C. for 24 h, and then moved to a growth chamber at 20° C. for 6 days, after which disease ratings were made.
as §2

[4] = tested on: Pyricularia oryzae; type: in vivo, Pyricularia oryzae (on rice seedlings); details: 200 ppm test suspension sprayed to run-off (equivalent to 500 g/ha) on rice seedlings; 100 = 100% disease control, 0 = no control; # = significant activity
[5] = tested on: Erysiphe graminis f. sp. tritici; assay: Test A: wheat powdery mildew, preventive spray on wheat seedlings, disease rating; type: in vivo, Erysiphe graminis f. sp. tritici (on wheat seedlings); details: 200 ppm test suspension sprayed to run-off (equivalent to 500 g/ha) on wheat seedlings; 100 = 100% disease control, 0 = no control; # = significant activity
Excerpt: as §1
The test suspension was sprayed to the point of run-off on wheat seedlings. The following day the seedlings were inoculated with a spore dust of Erysiphe graminis f. sp. tritici, (the causal agent of wheat powdery mildew) and incubated in a growth chamber at 20° C. for 7 days, after which disease ratings were made.
as §2

SMILES	Test E disease control rating (gray mold) [1]	Test D disease control rating (potato and tomato late blight) [2]	Test B disease control rating (wheat leaf rust) [3]	Test C disease control rating (rice blast) [4]	Test A disease control rating (wheat powdery mildew) [5]
CC(NC(=O)C1(C)CC(C)(Cl)C1)c1cccc2ccccc12 (centres unmarked) [compound 21]	0 (a rating of 0 indicates no disease control (relative to the controls))	0 (a rating of 0 indicates no disease control (relative to the controls))	0 (a rating of 0 indicates no disease control (relative to the controls))	0 (a rating of 0 indicates no disease control (relative to the controls))	0 (a rating of 0 indicates no disease control (relative to the controls))
CC(NC(=O)C1(C)CC(C)(Cl)C1)c1cccc2ccccc12 (centres unmarked) [compound 22]	0 (a rating of 0 indicates no disease control (relative to the controls))	0 (a rating of 0 indicates no disease control (relative to the controls))	0 (a rating of 0 indicates no disease control (relative to the controls))	0 (a rating of 0 indicates no disease control (relative to the controls))	0 (a rating of 0 indicates no disease control (relative to the controls))
CC(NC(=O)C1(C)CC(C)(Cl)C1)c1ccc2ccccc2c1 (centres unmarked) [compound 23]	0 (a rating of 0 indicates no disease control (relative to the controls))	0 (a rating of 0 indicates no disease control (relative to the controls))	0 (a rating of 0 indicates no disease control (relative to the controls))	97# %	0 (a rating of 0 indicates no disease control (relative to the controls))
CC(NC(=O)C1(C)CC(C)(Cl)C1)c1ccc2ccccc2c1 (centres unmarked) [compound 24]	0 (a rating of 0 indicates no disease control (relative to the controls))	0 (a rating of 0 indicates no disease control (relative to the controls))	0 (a rating of 0 indicates no disease control (relative to the controls))	100# (a rating of 100 indicates 100% disease control)	0 (a rating of 0 indicates no disease control (relative to the controls))
CC(COc1cc(F)ccc1F)NC(=O)C1(C(F)(F)F)CC(C)(Cl)C1 (centres unmarked) [compound 27]	0 (a rating of 0 indicates no disease control (relative to the controls))	14%	0 (a rating of 0 indicates no disease control (relative to the controls))	99# %	72%
CC(COc1cc(F)ccc1F)NC(=O)C1(C(F)(F)F)CC(C)(Cl)C1 (centres unmarked) [compound 28]	0 (a rating of 0 indicates no disease control (relative to the controls))	0 (a rating of 0 indicates no disease control (relative to the controls))	0 (a rating of 0 indicates no disease control (relative to the controls))	100# (a rating of 100 indicates 100% disease control)	53%
CC(COc1cc(F)ccc1F)NC(=O)C1(C)CC(C)(Cl)C1 (centres unmarked) [compound 29]	0 (a rating of 0 indicates no disease control (relative to the controls))	0 (a rating of 0 indicates no disease control (relative to the controls))	86# %	100# (a rating of 100 indicates 100% disease control)	0 (a rating of 0 indicates no disease control (relative to the controls))
CC(NC(=O)C1CC(C)(Cl)C1)C(Oc1cc(F)ccc1F)c1ccccc1 (centres unmarked) [compound 31]	0 (a rating of 0 indicates no disease control (relative to the controls))	0 (a rating of 0 indicates no disease control (relative to the controls))	0 (a rating of 0 indicates no disease control (relative to the controls))	90# %	0 (a rating of 0 indicates no disease control (relative to the controls))
CC(NC(=O)C1CC(C)(Cl)C1)C(Oc1cc(F)ccc1F)c1ccccc1 (centres unmarked) [compound 32]	0 (a rating of 0 indicates no disease control (relative to the controls))	0 (a rating of 0 indicates no disease control (relative to the controls))	0 (a rating of 0 indicates no disease control (relative to the controls))	52%	59%
CC(NC(=O)C1CC(C)(Cl)C1)C(Oc1cc(F)ccc1C#N)c1ccccc1 (centres unmarked) [compound 33]	0 (a rating of 0 indicates no disease control (relative to the controls))	0 (a rating of 0 indicates no disease control (relative to the controls))	0 (a rating of 0 indicates no disease control (relative to the controls))	52%	0 (a rating of 0 indicates no disease control (relative to the controls))
CC(NC(=O)C1CC(C)(Cl)C1)C(Oc1cc(F)ccc1C#N)c1ccccc1 (centres unmarked) [compound 34]	0 (a rating of 0 indicates no disease control (relative to the controls))	45%	0 (a rating of 0 indicates no disease control (relative to the controls))	52%	59%
CC(NC(=O)C1CC(C)(Cl)C1)C(Oc1ccccc1C#N)c1ccccc1 (centres unmarked) [compound 35]	0 (a rating of 0 indicates no disease control (relative to the controls))	0 (a rating of 0 indicates no disease control (relative to the controls))	0 (a rating of 0 indicates no disease control (relative to the controls))	86# %	0 (a rating of 0 indicates no disease control (relative to the controls))
CC(NC(=O)C1CC(C)(Cl)C1)C(Oc1ccccc1C#N)c1ccccc1 (centres unmarked) [compound 36]	0 (a rating of 0 indicates no disease control (relative to the controls))	0 (a rating of 0 indicates no disease control (relative to the controls))	0 (a rating of 0 indicates no disease control (relative to the controls))	0 (a rating of 0 indicates no disease control (relative to the controls))	0 (a rating of 0 indicates no disease control (relative to the controls))
